In PubChem BioAssay (NCI):
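1) Cells in 96-well plates. 2) Compound, 48 h, 5 concentrations. 3) Linear interpolation between surrounding doses. 4) Unreached endpoint = highest concentration. At the GI50, growth is halved. TGI: concentration producing complete growth inhibition.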

How the values were obtained:
Assay in all cases: NCI anticancer screen, dose series, 48 h
HCT-116 colon = tested on: HCT-116 colon
A498 renal = tested on: A498 renal
A549 NSCLC = tested on: A549 NSCLC
RXF 393 renal = tested on: RXF 393 renal
PC-3 prostate = tested on: PC-3 prostate
SF-295 CNS = tested on: SF-295 CNS
NCI/ADR-RES ovarian = tested on: NCI/ADR-RES ovarian
HOP-62 NSCLC = tested on: HOP-62 NSCLC
SNB-19 CNS = tested on: SNB-19 CNS
HCT-15 colon = tested on: HCT-15 colon
SK-MEL-28 melanoma = tested on: SK-MEL-28 melanoma
M14 melanoma = tested on: M14 melanoma

Compound | TGI (HCT-116 colon) [µM] | TGI (A498 renal) [µM] | TGI (A549 NSCLC) [µM] | TGI (RXF 393 renal) [µM] | TGI (PC-3 prostate) [µM] | TGI (SF-295 CNS) [µM] | TGI (NCI/ADR-RES ovarian) [µM] | TGI (HOP-62 NSCLC) [µM] | TGI (SNB-19 CNS) [µM] | TGI (HCT-15 colon) [µM] | TGI (SK-MEL-28 melanoma) [µM] | TGI (M14 melanoma) [µM] | GI50 (M14 melanoma) [µM]
Clc1nc(NC23CC4CC(CC(C4)C2)C3)nc(NC23CC4CC(CC(C4)C2)C3)n1 | > 100 | > 100 | > 100 | > 80.2 | > 40.6 | > 100 | > 100 | > 100 | > 100 | > 100 | > 100 | > 100 | –
NC(N)=NS(=O)(=O)c1ccc(NCc2cccc3c(=O)c4ccc(Cl)cc4oc23)cc1 | > 22.4 | > 15.3 | > 25 | 7.17 | > 14 | > 14.9 | > 14 | > 18.9 | 22.2 | > 20 | > 23.6 | > 16.3 | –
NC(N)=N/N=C/c1c(Cl)nc2n1CCS2 | 73.7 | > 100 | > 100 | > 100 | > 100 | > 100 | > 100 | > 100 | > 100 | > 100 | > 100 | > 100 | –
O=C(c1ccsc1)c1nccc2c1cnc1ccccc12 | > 100 | > 100 | > 100 | > 100 | > 100 | > 100 | > 100 | > 100 | > 100 | > 100 | > 100 | > 100 | –
CCCCCCCCCCCCCCCCNc1nc(=O)n(C2CC(O)C(COP(=O)(O)OC3CC(n4cc(F)c(=O)[nH]c4=O)OC3CO)O2)cc1F (stereo not given) | > 100 | > 89.6 | 26.4 | 30.3 | > 78.6 | 18.9 | 46 | 5.4 | 3.39 | 50.9 | > 68.7 | 16.5 | –
c1ccc([P+](Cc2ccc(C[P+](c3ccccc3)(c3ccccc3)c3ccccc3)s2)(c2ccccc2)c2ccccc2)cc1 | > 100 | > 100 | > 100 | > 100 | > 100 | > 100 | > 100 | > 100 | > 100 | > 100 | > 100 | > 100 | –
C#CCNC(CCCN=C(N)N)C(=O)O (stereo not given) | > 100 | > 100 | > 100 | > 100 | > 100 | > 100 | > 100 | > 100 | > 100 | > 100 | > 100 | > 100 | –
O=C1C=CC2(C=C1)O[C@H](CCc1ccccc1)[C@@H](CCc1ccccc1)O2 | > 100 | > 100 | > 100 | > 100 | > 100 | > 100 | > 100 | > 100 | > 100 | > 100 | > 100 | > 100 | –
COC(=O)c1ccc(C)cc1C1CN=NC12Cc1c(C)cccc1C2=O (stereo not given) | > 86.9 | > 100 | > 100 | > 100 | > 100 | > 100 | 81.4 | > 100 | > 100 | > 100 | > 100 | > 100 | 25.9
C=C(Cl)C(Cl)(CBr)CCCC(C)C (stereo not given) | 24 | 34 | 54.8 | 44.2 | 27.5 | 30 | > 80.4 | 27 | 47.4 | > 85.4 | 37.3 | > 100 | –
CC1(c2cccc(C(F)(F)F)c2)CC(c2cccc(C(F)(F)F)c2)=C(C#N)C(=C(C#N)C#N)N1 (stereo not given) | 29.2 | 32.7 | 39.9 | 31.4 | 34.7 | 31 | 43 | 32.7 | 40 | 33.1 | 33.9 | 37.4 | –
CCOP(=O)(OCC)/C(C#N)=C/c1cccn1C | > 100 | > 100 | > 100 | > 100 | > 100 | > 100 | > 100 | > 100 | > 100 | > 100 | > 100 | > 100 | –
Cc1ccc(C(=O)c2[nH]c(NCc3ccccc3)c(C(=S)Nc3ccccc3)c2N)cc1 | 15.2 | 31.6 | 22.1 | 20.7 | 26.1 | 17.2 | 8.51 | 29.2 | 29.1 | 4.33 | 9.97 | 3.97 | –
CC1=NN(c2nc(N)nc(CCl)n2)C(C)(C)C1 | > 70.1 | > 84.4 | > 100 | > 100 | > 100 | > 74.5 | 35 | 19.1 | > 100 | 55.9 | > 75.8 | > 75.4 | –
CC(Oc1ccc(Cl)cc1Cl)C(=O)NN1C(=O)CC(=O)NC1=S (stereo not given) | > 100 | > 100 | > 100 | > 100 | > 100 | > 100 | > 100 | > 100 | > 100 | > 100 | > 100 | > 100 | –
CN(C)Cc1cc(C(=O)/C=C/c2ccc(Cl)cc2Cl)cc(CN(C)C)c1O | 11.7 | 8.49 | 11.9 | 10.7 | 6.19 | 14 | 5.7 | 12.9 | 19.9 | 14.6 | 19.1 | 13.3 | –
COc1ccc(C(=O)c2[nH]c(Nc3cc(C)ccn3)c(C(=S)Nc3ccccc3)c2N)cc1 | 50.6 | 33.1 | > 100 | 38.4 | > 100 | 49.5 | 24.3 | 72.2 | 56 | 55.9 | 34 | 42.5 | –
Cc1cc(NS(=O)(=O)c2ccc(NC(=O)c3ccc4nc5ccccc5c(Nc5ccc(S(N)(=O)=O)cc5)c4c3)cc2)no1 | 63.2 | > 100 | 66.3 | 58.4 | > 100 | > 100 | > 100 | > 100 | > 100 | 41.3 | 50.7 | > 100 | –
COc1cc2c(/C=C3/C(=O)Nc4cc(C)c(O)cc43)c(Cl)[nH]c2cc1C | 8.84 | 43.2 | 20.2 | 7.1 | 21.9 | 5.07 | 12.8 | 10.9 | 14.8 | 13.5 | 18.9 | 5.89 | –

Compound | TGI (HCT-116 colon) [µM] | TGI (A498 renal) [µM] | TGI (A549 NSCLC) [µM] | TGI (RXF 393 renal) [µM] | TGI (PC-3 prostate) [µM] | TGI (SF-295 CNS) [µM] | TGI (NCI/ADR-RES ovarian) [µM] | TGI (HOP-62 NSCLC) [µM] | TGI (SNB-19 CNS) [µM] | TGI (HCT-15 colon) [µM] | TGI (SK-MEL-28 melanoma) [µM] | TGI (M14 melanoma) [µM] | GI50 (M14 melanoma) [µM]
COc1ccccc1NC(=S)Nc1ccccn1 | > 100 | > 100 | > 100 | > 100 | > 100 | > 100 | > 100 | > 100 | > 100 | > 100 | > 100 | > 100 | –
CN(C)/C=N/S(=O)(=O)c1nn2c(C=O)c(-c3ccc(-c4ccccc4)cc3)nc2s1 | 2.99 | 47.5 | > 44.5 | 4.49 | 5.07 | 42.5 | > 86.8 | 22.9 | 25.5 | 7.75 | 4.33 | 3.12 | –
ON[C@@H]1C=C[C@H](n2cnc3c(NC4CC4)ncnc32)C1 | > 100 | > 100 | > 100 | > 100 | > 100 | > 100 | > 100 | > 100 | > 100 | > 100 | > 100 | > 100 | –
COc1cc(C)cc2c1C(=O)C(NC(C)=O)=CC2=O | > 100 | > 100 | > 100 | > 100 | > 100 | > 100 | > 100 | > 100 | > 100 | > 100 | > 100 | > 100 | –
CCOC(=O)C1=C(C)N(Cc2ccccc2)C2(O)C=CC(=O)C3C(=O)N(c4ccccc4)C(=O)C132 (stereo not given) | 2.49 | 28.1 | 10.4 | 2.94 | 6.88 | 13.7 | 10.6 | 5.52 | 21.4 | 5.14 | 3.54 | 3.92 | –
O=C(O)C(C1NCCS1)N1C(=O)c2ccccc2C1=O (stereo not given) | > 100 | > 100 | > 100 | > 100 | > 100 | > 100 | > 100 | > 100 | > 100 | > 100 | > 100 | > 100 | –
c1ccc(CSCCC(SCc2ccccc2)SCc2ccccc2)cc1 | > 10 | > 10 | > 10 | > 10 | > 10 | > 10 | > 10 | > 10 | > 10 | > 10 | > 10 | > 10 | –
Cc1ccc2c(n1)C(=O)c1cc(C)c(C)cc1C2=O | > 100 | > 100 | > 100 | > 100 | > 100 | > 100 | > 100 | > 100 | > 100 | > 100 | > 100 | > 100 | –
C=CCNC(=S)NC=C(C(N)=O)C(N)=O | > 100 | 89.2 | > 100 | > 100 | > 100 | > 100 | > 100 | > 100 | > 100 | > 100 | > 100 | > 100 | –
CSCCCNC(=O)c1csc(-c2csc(CCNC(=O)CNC(=O)OC(C)(C)C)n2)n1 | > 100 | > 100 | > 100 | > 100 | > 100 | > 100 | > 100 | > 100 | > 100 | > 100 | > 100 | > 100 | –
CCSc1c2cc(OC)ccc2nc2ccc(OC)cc12 | > 47.8 | 30 | > 100 | 63 | > 56 | 60.4 | > 69.7 | 53.9 | > 100 | > 100 | > 59.2 | 33.3 | –
CCN1C(c2ccccc2)=CC(c2ccccc2)(C(Cl)(Cl)Cl)C=C1c1ccccc1 | 29.3 | 54.4 | > 100 | 72.2 | > 100 | > 100 | > 100 | > 100 | > 100 | > 100 | 67 | 26.4 | –
C=C1C(=O)OC2/C=C(\CO)C3OC3C3OC3(C)CC(OC(=O)/C(=C/C)COC(C)=O)C12 (stereo not given) | 2.96 | 27.7 | 36.9 | 3.96 | 27 | 46.7 | 41.8 | 40.4 | 28.6 | 6.47 | 3.72 | 6.64 | –
CC(C)(C(=O)N(C(=O)N1CCN(c2ccccc2)CC1)S(=O)(=O)c1ccccc1)c1ccc(Cl)cc1 | > 100 | 80.8 | > 100 | > 100 | 70.3 | > 100 | > 100 | > 100 | > 100 | > 100 | > 100 | > 100 | –
Cc1ccccc1-n1c(=O)nc2n(-c3ccc(C(C)(C)C)cc3)c3ccccc3cc-2c1=O | 28.8 | 86.6 | > 100 | 39 | 45.6 | 53.1 | 40.6 | 39.7 | 54.4 | 32.8 | 28.7 | 32.4 | –
COc1cccc(/C=N/[N+](C)(C)C)c1O | > 10 | > 10 | > 10 | > 10 | > 10 | > 10 | > 10 | > 10 | > 10 | > 10 | > 10 | > 10 | –
COc1ccc(-c2c(C#N)c(N)nc(Sc3ccccc3N)c2C#N)cc1 | > 100 | 19.6 | > 100 | 30.1 | > 55.6 | 56.6 | 98.4 | 32.6 | > 55.5 | > 100 | > 100 | > 100 | –
O=C1Nc2ccccc2C1(O)Cc1ccccn1 (stereo not given) | > 100 | > 100 | > 100 | > 100 | > 100 | > 100 | > 100 | > 100 | > 100 | > 100 | > 100 | > 100 | –
